Columns and labels:
[1] = target: recombinant RORγ Ligand Binding Domain (LBD) protein (Homo sapiens (Human), UniProt P51449); assay: Radio-Ligand RORγ Binding Assay (Assay 1); details: radio-ligand 25-hydroxy [26,27-3H]-cholesterol competition
Method: Radio-Ligand RORγ Binding Assay (Assay 1)
Compounds described herein were tested for ability to bind to RORγ in a cell-free competition assay with commercially available radio-ligand (RL), 25-hydroxy [26,27-^3H]-cholesterol (PerkinElmer, Cat. # NET674250UC), for a ligand binding site on a recombinant RORγ Ligand Binding Domain (LBD) protein expressed as a 6×His-Glutathione-S-Transferase (GST) fusion. […] The plate was shaken at 700 rpm for 20 min and incubated for 10 min at rt, after which 40 μL of poly-Lys YSi SPA beads (PerkinElmer, Cat. # RPNQ0010) were added to achieve 50 μg of the beads per well. The plate was incubated on an orbital shaker for 20 min and then for 10 min without agitation at rt. SPA signal for tritium beta radiation was registered on PerkinElmer Microbeta plate reader. […] The percent inhibition vs. concentration data were fit into a four-parameter model, and IC50 values were calculated from the fit as the concentrations corresponding to the inflection points on the dose-response curves. […]

[2] = target: full-length RORγt in Jurkat cells (Homo sapiens (Human), UniProt P51449); assay: RORγt 5×RORE Assay in Jurkat Cells (Assay 2); format: cell-based; details: RORγt 5×RORE Nanoluc reporter
Method: [formula] RORγt 5×RORE Assay in Jurkat Cells (Assay 2)
Compounds described herein were tested for RORγ inverse agonist activity in a cell-based, transcriptional activity assay. […] (Promega, Cat. # N1021) using KpnI and HindIII restriction sites. […] Tested compounds were added to the cells in the same media (final concentration of DMSO was 0.1% (v/v)), and the plates were incubated at 37° C./5% CO2 for 16-18 hrs. Luciferase activity in the conditioned supernatants was determined with NanoGlo® assay reagents (Promega, Cat.# N1130).

Sequence of recombinant RORγ Ligand Binding Domain (LBD) protein (P51449 269-508): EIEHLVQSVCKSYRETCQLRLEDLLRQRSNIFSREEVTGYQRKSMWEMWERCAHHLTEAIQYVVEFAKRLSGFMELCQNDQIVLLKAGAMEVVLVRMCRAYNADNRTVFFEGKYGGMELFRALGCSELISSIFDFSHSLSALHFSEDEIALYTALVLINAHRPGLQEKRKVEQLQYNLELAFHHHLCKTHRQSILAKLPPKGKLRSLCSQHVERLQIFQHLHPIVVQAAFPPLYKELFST
Sequence of full-length RORγt in Jurkat cells (P51449 other isoform, or with tags, fused parts or gaps): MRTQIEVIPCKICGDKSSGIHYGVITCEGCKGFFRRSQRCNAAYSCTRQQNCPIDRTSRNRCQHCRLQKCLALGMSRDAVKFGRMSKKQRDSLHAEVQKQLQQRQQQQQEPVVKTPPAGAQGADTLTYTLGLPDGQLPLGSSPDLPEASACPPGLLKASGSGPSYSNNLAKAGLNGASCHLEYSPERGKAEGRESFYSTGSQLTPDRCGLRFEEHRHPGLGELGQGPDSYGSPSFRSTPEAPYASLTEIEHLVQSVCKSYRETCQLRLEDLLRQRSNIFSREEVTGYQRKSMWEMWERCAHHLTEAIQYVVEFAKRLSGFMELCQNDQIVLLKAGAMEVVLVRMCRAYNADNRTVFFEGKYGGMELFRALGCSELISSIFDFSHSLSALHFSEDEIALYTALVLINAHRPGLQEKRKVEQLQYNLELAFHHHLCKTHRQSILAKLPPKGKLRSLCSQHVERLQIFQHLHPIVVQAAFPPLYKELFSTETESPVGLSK

Compound	Ki [1] [nM]	IC50 [2] [nM]
CCS(=O)(=O)c1ccc(CNC(=O)c2ccc3c(c2)nc(C[C@H]2CC[C@@H](C(F)(F)F)CC2)n3CC(C)C)nc1 [BE-26.2, N-((5-(ethylsulfonyl)pyridin-2-yl)methyl)-1-isobutyl-2-(((1s,4s)-4-(trifluoromethyl)cyclohexyl)methyl)-1H-benzo[d]imidazole-5-carboxamide]	< 100	> 1000
CCS(=O)(=O)c1ccc(CNC(=O)c2ccc3c(c2)nc(C[C@H]2CC[C@H](C(F)(F)F)CC2)n3C2CC2)nc1 [BE-27.1, 1-cyclopropyl-N-((5-(ethylsulfoyl)pyridin-2-yl)methyl)-2-(((1r,4r)-4-(trifluoromethyl)cyclohexyl)methyl)-1H-benzo[d]imidazole-5-carboxamide]	< 100	< 100
CCS(=O)(=O)c1ccc(CNC(=O)c2ccc3c(c2)nc(C[C@H]2CC[C@@H](C(F)(F)F)CC2)n3C2CC2)nc1 [BE-27.2, 1-cyclopropyl-N-((5-(ethylsulfonyl)pyridin-2-yl)methyl)-2-(((1s,4s)-4-(trifluoromethyl)cyclohexyl)methyl)-1H-benzo[d]imidazole-5-carboxamide]	< 100	> 1000
CCS(=O)(=O)c1ccc([C@H](CO)NC(=O)c2ccc3c(c2)nc(C[C@H]2CC[C@H](C(F)(F)F)CC2)n3C2CC2)nc1 [BE-28, 1-cyclopropyl-N-((R)-1-(5-(ethylsulfonyl)pyridin-2-yl)-2-hydroxyethyl)-2-(((1r,4R)-4-(trifluoromethyl)cyclohexyl)methyl)-1H-benzo[d]imidazole-5-carboxamide]	< 100	< 100
CS(=O)(=O)c1ccc(CNC(=O)c2ccc3c(c2)nc(C[C@H]2CC[C@H](C(F)(F)F)CC2)n3C2CC2)cc1 [BE-30, 1-cyclopropyl-N-(4-(methylsulfonyl)benzyl)-2-(((1r,4r)-4-(trifluoromethyl)cyclohexyl)methyl)-1H-benzo[d]imidazole-5-carboxamide]	< 100	< 100
CNS(=O)(=O)c1ccc(CNC(=O)c2ccc3c(c2)nc(C[C@H]2CC[C@H](C(F)(F)F)CC2)n3C2CC2)nc1 [BE-31, 1-cyclopropyl-N-((5-(N-methylsulfamoyl)pyridin-2-yl)methyl)-2-(((1r,4r)-4-(trifluoromethyl)cyclohexyl)methyl)-1H-benzo[d]imidazole-5-carboxamide]	< 100	> 1000
CS(=O)(=O)c1ccc([C@H](CO)NC(=O)c2ccc3c(c2)nc(C[C@H]2CC[C@H](C(F)(F)F)CC2)n3C2CC2)cc1 [BE-32, 1-cyclopropyl-N-((R)-2-hydroxy-1-(4-(methylsulfonyl)phenyl)ethyl)-2-(((1r,4R)-4-(trifluoromethyl)cyclohexyl)methyl)-1H-benzo[d]imidazole-5-carboxamide]	< 100	< 100
CNS(=O)(=O)c1ccc(CNC(=O)c2ccc3c(c2)nc(C[C@H]2CC[C@H](C(F)(F)F)CC2)n3C2CC2)cc1 [BE-33, 1-cyclopropyl-N-(4-(N-methylsulfamoyl)benzyl)-2-(((1r,4r)-4-(trifluoromethyl)cyclohexyl)methyl)-1H-benzo[d]imidazole-5-carboxamide]	< 100	< 100
CCn1c(Cc2ccc(C(F)(F)F)cc2)nc2cc(C(=O)NCc3ccc(S(=O)(=O)CC)cc3)ccc21 [BE-35, 1-ethyl-N-(4-(ethylsulfonyl)benzyl)-2-(4-(trifluoromethyl)benzyl)-1H-benzo[d]imidazole-5-carboxamide]	< 100	< 100
CCS(=O)(=O)c1ccc(CNC(=O)c2ccc3c(c2)nc(Cc2ccc(C(F)(F)F)cc2)n3C2CC2)cc1 [BE-36, 1-cyclopropyl-N-(4-(ethylsulfonyl)benzyl)-2-(4-(trifluoromethyl)benzyl)-1H-benzo[d]imidazole-5-carboxamide]	< 100	< 100
CCS(=O)(=O)c1ccc(CNC(=O)c2ccc3c(c2)nc(Cc2ccc(C(F)(F)F)cc2)n3CC(F)(F)F)cc1 [BE-37, N-(4-(ethylsulfonyl)benzyl)-1-(2,2,2-trifluoroethyl)-2-(4-(trifluoromethyl)benzyl)-1H-benzo[d]imidazole-5-carboxamide]	< 100	< 100
CCS(=O)(=O)c1ccc(CNC(=O)c2ccc3c(c2)nc(C[C@H]2CC[C@H](OC)CC2)n3C2CC2)cc1 [BE-46.1, 1-cyclopropyl-N-(4-(ethylsulfonyl)benzyl)-2-(((1r,4r)-4-methoxycyclohexyl)methyl)-1H-benzo[d]imidazole-5-carboxamide]	< 100	100 to 1000
CCS(=O)(=O)c1ccc(CNC(=O)c2ccc3c(c2)nc(C[C@H]2CC[C@@H](OC)CC2)n3C2CC2)cc1 [BE-46.2, 1-cyclopropyl-N-(4-(ethylsulfonyl)benzyl)-2-(((1s,4s)-4-methoxycyclohexyl)methyl)-1H-benzo[d]imidazole-5-carboxamide]	< 100	> 1000
CCS(=O)(=O)c1ccc([C@H](CO)NC(=O)c2ccc3c(c2)nc(Cc2ccc(OC(F)(F)F)cc2)n3C2CC2)cc1 [BE-47, (R)-1-cyclopropyl-N-(1-(4-(ethylsulfonyl)phenyl)-2-hydroxyethyl)-2-(4-(trifluoromethoxy)benzyl)-1H-benzo[d]imidazole-5-carboxamide]	< 100	< 100
CCS(=O)(=O)c1ccc(CNC(=O)c2ccc3c(c2)nc(Cc2ccc(OC(F)F)cc2)n3C2CC2)cc1 [BE-48, 1-cyclopropyl-2-(4-(difluoromethoxy)benzyl)-N-(4-(ethylsulfonyl)benzyl)-1H-benzo[d]imidazole-5-carboxamide]	< 100	< 100
CCS(=O)(=O)c1ccc(CNC(=O)c2ccc3c(c2)nc(CC2CCN(C(=O)OC(C)(C)C)CC2)n3C2CC2)cc1 [BE-49, tert-butyl 4-((1-cyclopropyl-5-((4-(ethylsulfonyl)benzyl)carbamoyl)-1H-benzo[d]imidazol-2-yl)methyl)piperidine-1-carboxylate]	< 100	100 to 1000
CCS(=O)(=O)c1ccc(CNC(=O)c2ccc3c(c2)nc(Cc2ccc(Cl)cn2)n3C2CC2)cc1 [BE-52, 2-((5-chloropyridin-2-yl)methyl)-1-cyclopropyl-N-(4-(ethylsulfonyl)benzyl)-1H-benzo[d]imidazole-5-carboxamide]	< 100	> 1000
CCS(=O)(=O)c1ccc(CNC(=O)c2ccc3c(c2)nc(CN2CCC(C(F)(F)F)CC2)n3CC(C)C)cc1 [BE-53, N-(4-(ethylsulfonyl)benzyl)-1-isobutyl-2-((4-(trifluoromethyl)piperidin-1-yl)methyl)-1H-benzo[d]imidazole-5-carboxamide]	< 100	< 100
CCS(=O)(=O)c1ccc([C@H](CO)NC(=O)c2ccc3c(c2)nc(CN2CCC(C(F)(F)F)CC2)n3C2CC2)cc1 [BE-54, (R)-1-cyclopropyl-N-(1-(4-(ethylsulfonyl)phenyl)-2-hydroxyethyl)-2-((4-(trifluoromethyl)piperidin-1-yl)methyl)-1H-benzo[d]imidazole-5-carboxamide]	< 100	< 100
CCS(=O)(=O)c1ccc(CNC(=O)c2ccc3c(c2)nc(C(=O)c2ccc(C(F)(F)F)cc2)n3C2CC2)cc1 [BE-65, 1-cyclopropyl-N-(4-(ethylsulfonyl)benzyl)-2-(4-(trifluoromethyl)benzoyl)-1H-benzo[d]imidazole-5-carboxamide]	< 100	< 100
CCS(=O)(=O)c1ccc([C@H](CO)NC(=O)c2ccc3c(c2)nc(Oc2ccc(C(F)(F)F)cc2)n3C2CC2)nc1 [BE-70, (R)-1-cyclopropyl-N-(1-(5-(ethylsulfonyl)pyridin-2-yl)-2-hydroxyethyl)-2-(4-(trifluoromethyl)phenoxy)-1H-benzo[d]imidazole-5-carboxamide]	< 100	< 100
CCn1c(Cc2ccc(C(F)(F)F)cc2)cc2cc(C(=O)NCc3ccc(S(=O)(=O)CC)cc3)ccc21 [IN-1, 1-ethyl-N-(4-(ethylsulfonyl)benzyl)-2-(4-(trifluoromethyl)benzyl)-1H-indole-5-carboxamide]	< 100	< 100
CCn1c(Cc2ccc(C(F)(F)F)cc2)cc2cc(C(=O)NCc3ccc(S(=O)(=O)CC)cn3)ccc21 [IN-2, 1-ethyl-N-((5-(ethylsulfonyl)pyridin-2-yl)methyl)-2-(4-(trifluoromethyl)benzyl)-1H-indole-5-carboxamide]	< 100	< 100
CCn1c(Cc2ccc(C(F)(F)F)cc2)cc2cc(C(=O)N[C@@H](CO)c3ccc(S(=O)(=O)CC)cc3)ccc21 [IN-3, (R)-1-ethyl-N-(1-(4-(ethylsulfonyl)phenyl)-2-hydroxyethyl)-2-(4-(trifluoromethyl)benzyl)-1H-indole-5-carboxamide]	< 100	< 100
CCn1c(Cc2ccc3c(c2)OC(F)(F)O3)cc2cc(C(=O)N[C@@H](CO)c3ccc(S(=O)(=O)CC)cn3)ccc21 [IN-5, (R)-2-((2,2-difluorobenzo[d][1,3]dioxol-5-yl)methyl)-1-ethyl-N-(1-(5-(ethylsulfonyl)pyridin-2-yl)-2-hydroxyethyl)-1H-indole-5-carboxamide]	< 100	< 100
